Activity calls are given as the source filed them.
Key:
[1] = NIH3T3 cell viability loss – ATP luminescence, mouse fibroblasts, counter-screen, dose response (AID 2010); type: functional, cell-based;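 further: cells exposed to compound for about 90 hours before reading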
[2] = Trypanosoma cruzi growth suppression in host cells – NIH3T3 host cells, beta-gal luminescence, confirmation (AID 2044); type: functional, cell-based;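 further: intracellular parasites grown in NIH/3T3 mouse fibroblasts as host cells; luminescent beta-galactosidase reporter signal from transgenic T. cruzi replicating inside host cells; inhibitors lower the luminescence signal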
Estrogen receptor beta [3] = biological target: T1, Estrogen receptor beta (Homo sapiens, UniProt Q92731);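 further: recombinant ER-beta bound to coactivator SRC1 peptide in presence of estradiol agonist; inhibitors block coactivator peptide binding and lower the FRET signal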
T1 sequence (Q92731 whole entry): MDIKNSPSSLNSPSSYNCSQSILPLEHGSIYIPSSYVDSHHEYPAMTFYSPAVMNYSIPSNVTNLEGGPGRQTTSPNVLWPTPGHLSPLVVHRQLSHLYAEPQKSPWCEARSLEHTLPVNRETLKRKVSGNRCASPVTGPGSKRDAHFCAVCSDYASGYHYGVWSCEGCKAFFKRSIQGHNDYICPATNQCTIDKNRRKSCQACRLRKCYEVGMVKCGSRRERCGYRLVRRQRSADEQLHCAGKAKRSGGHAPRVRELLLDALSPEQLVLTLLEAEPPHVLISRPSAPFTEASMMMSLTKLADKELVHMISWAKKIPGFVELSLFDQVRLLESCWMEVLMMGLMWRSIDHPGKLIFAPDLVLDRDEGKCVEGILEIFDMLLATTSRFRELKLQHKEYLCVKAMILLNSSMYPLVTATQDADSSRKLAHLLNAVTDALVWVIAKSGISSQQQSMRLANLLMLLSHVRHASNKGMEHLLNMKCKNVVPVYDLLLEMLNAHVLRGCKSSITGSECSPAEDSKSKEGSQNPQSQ

Estrogen receptor beta [4] = biological target: T1, Estrogen receptor beta; assay: blockers of SRC-3 recruitment to ERβ – biochemical, ELISA, streptavidin-HRP readout, orthogonal assay, confirmation (AID 1060)
[5] = biological target: T2, Serine/threonine-protein phosphatase (Homo sapiens, UniProt Q9BPW0); assay: inhibition of protein phosphatase 5 activity – biochemical, fluorescence, dose response (AID 2395)
T2 sequence (Q9BPW0 whole entry): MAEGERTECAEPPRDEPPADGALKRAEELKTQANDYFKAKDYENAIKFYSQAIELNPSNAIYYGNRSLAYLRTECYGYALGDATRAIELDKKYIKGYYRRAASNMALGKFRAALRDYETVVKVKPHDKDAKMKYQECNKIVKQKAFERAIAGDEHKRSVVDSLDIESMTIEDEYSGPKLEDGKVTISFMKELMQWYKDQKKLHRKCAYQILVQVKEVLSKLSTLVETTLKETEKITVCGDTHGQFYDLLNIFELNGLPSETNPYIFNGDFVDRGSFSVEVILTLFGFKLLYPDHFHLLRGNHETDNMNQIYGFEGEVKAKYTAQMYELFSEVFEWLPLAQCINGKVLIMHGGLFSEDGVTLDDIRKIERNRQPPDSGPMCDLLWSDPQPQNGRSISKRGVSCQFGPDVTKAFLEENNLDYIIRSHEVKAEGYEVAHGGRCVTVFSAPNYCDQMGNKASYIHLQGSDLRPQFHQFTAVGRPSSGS

Genome polyprotein = Genome polyprotein (dengue virus type 2, UniProt P29990); assay: flavivirus cap methylation enzyme inhibition – biochemical, confirmation dose response, primary screen (AID 588689); type: functional
[6] = biological target: Serine/threonine-protein phosphatase PP1-alpha catalytic subunit (Homo sapiens, UniProt P62136); assay: inhibition of protein phosphatase 1 activity – biochemical, fluorescence, dose response (AID 2394)
Sequence of Serine/threonine-protein phosphatase PP1-alpha catalytic subunit (P62136 whole entry): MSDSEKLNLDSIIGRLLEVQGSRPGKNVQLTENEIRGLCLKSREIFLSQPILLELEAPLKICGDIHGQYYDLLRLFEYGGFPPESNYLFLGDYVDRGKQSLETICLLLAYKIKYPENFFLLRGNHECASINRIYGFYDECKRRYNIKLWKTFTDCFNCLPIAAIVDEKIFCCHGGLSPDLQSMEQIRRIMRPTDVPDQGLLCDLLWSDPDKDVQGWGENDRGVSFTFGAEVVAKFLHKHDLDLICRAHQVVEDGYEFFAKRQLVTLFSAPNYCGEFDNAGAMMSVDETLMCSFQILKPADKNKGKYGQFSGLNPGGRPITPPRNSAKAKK

[7] = biological target: T3, Apoptotic protease-activating factor 1 (Homo sapiens, UniProt O14727); type: functional
T3 sequence (O14727 whole entry): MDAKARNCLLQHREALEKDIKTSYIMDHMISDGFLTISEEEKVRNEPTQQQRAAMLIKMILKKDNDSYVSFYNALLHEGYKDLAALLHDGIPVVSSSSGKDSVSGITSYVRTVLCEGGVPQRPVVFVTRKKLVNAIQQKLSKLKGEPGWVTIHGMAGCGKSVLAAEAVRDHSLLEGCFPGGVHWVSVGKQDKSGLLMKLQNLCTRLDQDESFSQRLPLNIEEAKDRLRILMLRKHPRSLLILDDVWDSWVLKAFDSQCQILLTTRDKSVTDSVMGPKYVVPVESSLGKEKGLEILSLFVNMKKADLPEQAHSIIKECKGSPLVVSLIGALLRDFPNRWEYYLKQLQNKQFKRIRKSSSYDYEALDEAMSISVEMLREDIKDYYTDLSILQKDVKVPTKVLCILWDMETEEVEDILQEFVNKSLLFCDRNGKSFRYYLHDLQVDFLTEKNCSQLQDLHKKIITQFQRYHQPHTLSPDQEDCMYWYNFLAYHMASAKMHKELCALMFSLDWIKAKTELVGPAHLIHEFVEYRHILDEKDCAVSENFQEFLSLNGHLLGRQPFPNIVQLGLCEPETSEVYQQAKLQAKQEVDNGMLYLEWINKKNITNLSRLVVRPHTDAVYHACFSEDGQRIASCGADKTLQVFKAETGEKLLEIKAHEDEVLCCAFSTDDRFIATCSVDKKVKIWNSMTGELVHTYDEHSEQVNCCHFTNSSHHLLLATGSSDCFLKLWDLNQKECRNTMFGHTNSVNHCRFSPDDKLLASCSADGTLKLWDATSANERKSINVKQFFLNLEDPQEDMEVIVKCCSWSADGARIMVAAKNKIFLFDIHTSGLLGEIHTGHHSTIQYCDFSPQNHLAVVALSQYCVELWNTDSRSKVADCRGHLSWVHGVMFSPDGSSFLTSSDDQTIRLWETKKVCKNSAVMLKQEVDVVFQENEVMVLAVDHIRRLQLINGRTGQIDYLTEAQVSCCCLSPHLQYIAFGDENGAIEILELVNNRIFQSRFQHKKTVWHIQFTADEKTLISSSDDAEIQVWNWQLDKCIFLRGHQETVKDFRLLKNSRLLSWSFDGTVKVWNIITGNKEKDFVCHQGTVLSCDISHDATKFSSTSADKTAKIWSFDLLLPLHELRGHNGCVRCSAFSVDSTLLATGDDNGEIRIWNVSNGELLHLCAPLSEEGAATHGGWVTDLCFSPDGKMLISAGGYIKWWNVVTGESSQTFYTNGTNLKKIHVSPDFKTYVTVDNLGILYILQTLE

Bcl-2-like protein 10 = biological target: T4, Bcl-2-like protein 10 (Homo sapiens, UniProt Q9HD36); assay: Bcl-B/TR3 peptide binding disruption – biochemical, fluorescence polarization, FITC-TR3 peptide, selectivity assay for Bfl-1 inhibitor project, primary screen (AID 748);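 further: fluorescence polarization from a fluorescein-labelled TR3 peptide binding purified Bcl-B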
T4 sequence (Q9HD36 whole entry): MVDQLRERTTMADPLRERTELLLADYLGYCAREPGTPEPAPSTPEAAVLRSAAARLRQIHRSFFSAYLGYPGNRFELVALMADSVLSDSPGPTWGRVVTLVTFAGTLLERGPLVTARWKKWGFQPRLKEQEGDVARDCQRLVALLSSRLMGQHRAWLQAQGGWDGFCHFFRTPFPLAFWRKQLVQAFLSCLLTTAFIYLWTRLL

X-box-binding protein 1 = X-box-binding protein 1 (Homo sapiens, UniProt P17861); type: functional, Cricetulus griseus;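 further: confirmatory dose-response counter-screen serving a CHOP assay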
Sequence of X-box-binding protein 1 (P17861 whole entry): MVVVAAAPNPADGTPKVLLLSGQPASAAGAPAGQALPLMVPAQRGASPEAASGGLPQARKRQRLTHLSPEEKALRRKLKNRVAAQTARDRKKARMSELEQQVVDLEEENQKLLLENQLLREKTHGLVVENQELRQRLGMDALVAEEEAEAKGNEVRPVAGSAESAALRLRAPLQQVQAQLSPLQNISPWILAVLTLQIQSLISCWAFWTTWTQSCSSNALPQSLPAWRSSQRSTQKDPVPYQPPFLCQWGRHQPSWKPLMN

Fatty acid synthase [8] = biological target: T5, Fatty acid synthase (Homo sapiens, UniProt P49327); assay: inhibition of human FAS-TE enzyme activity – biochemical, endpoint fluorescence intensity, uHTS hits, dose response (AID 624327); type: functional;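 further: fluorescence from hydrolysis of an O-methyl fluorescein acyl ester substrate by the enzyme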
T5 sequence (P49327 whole entry): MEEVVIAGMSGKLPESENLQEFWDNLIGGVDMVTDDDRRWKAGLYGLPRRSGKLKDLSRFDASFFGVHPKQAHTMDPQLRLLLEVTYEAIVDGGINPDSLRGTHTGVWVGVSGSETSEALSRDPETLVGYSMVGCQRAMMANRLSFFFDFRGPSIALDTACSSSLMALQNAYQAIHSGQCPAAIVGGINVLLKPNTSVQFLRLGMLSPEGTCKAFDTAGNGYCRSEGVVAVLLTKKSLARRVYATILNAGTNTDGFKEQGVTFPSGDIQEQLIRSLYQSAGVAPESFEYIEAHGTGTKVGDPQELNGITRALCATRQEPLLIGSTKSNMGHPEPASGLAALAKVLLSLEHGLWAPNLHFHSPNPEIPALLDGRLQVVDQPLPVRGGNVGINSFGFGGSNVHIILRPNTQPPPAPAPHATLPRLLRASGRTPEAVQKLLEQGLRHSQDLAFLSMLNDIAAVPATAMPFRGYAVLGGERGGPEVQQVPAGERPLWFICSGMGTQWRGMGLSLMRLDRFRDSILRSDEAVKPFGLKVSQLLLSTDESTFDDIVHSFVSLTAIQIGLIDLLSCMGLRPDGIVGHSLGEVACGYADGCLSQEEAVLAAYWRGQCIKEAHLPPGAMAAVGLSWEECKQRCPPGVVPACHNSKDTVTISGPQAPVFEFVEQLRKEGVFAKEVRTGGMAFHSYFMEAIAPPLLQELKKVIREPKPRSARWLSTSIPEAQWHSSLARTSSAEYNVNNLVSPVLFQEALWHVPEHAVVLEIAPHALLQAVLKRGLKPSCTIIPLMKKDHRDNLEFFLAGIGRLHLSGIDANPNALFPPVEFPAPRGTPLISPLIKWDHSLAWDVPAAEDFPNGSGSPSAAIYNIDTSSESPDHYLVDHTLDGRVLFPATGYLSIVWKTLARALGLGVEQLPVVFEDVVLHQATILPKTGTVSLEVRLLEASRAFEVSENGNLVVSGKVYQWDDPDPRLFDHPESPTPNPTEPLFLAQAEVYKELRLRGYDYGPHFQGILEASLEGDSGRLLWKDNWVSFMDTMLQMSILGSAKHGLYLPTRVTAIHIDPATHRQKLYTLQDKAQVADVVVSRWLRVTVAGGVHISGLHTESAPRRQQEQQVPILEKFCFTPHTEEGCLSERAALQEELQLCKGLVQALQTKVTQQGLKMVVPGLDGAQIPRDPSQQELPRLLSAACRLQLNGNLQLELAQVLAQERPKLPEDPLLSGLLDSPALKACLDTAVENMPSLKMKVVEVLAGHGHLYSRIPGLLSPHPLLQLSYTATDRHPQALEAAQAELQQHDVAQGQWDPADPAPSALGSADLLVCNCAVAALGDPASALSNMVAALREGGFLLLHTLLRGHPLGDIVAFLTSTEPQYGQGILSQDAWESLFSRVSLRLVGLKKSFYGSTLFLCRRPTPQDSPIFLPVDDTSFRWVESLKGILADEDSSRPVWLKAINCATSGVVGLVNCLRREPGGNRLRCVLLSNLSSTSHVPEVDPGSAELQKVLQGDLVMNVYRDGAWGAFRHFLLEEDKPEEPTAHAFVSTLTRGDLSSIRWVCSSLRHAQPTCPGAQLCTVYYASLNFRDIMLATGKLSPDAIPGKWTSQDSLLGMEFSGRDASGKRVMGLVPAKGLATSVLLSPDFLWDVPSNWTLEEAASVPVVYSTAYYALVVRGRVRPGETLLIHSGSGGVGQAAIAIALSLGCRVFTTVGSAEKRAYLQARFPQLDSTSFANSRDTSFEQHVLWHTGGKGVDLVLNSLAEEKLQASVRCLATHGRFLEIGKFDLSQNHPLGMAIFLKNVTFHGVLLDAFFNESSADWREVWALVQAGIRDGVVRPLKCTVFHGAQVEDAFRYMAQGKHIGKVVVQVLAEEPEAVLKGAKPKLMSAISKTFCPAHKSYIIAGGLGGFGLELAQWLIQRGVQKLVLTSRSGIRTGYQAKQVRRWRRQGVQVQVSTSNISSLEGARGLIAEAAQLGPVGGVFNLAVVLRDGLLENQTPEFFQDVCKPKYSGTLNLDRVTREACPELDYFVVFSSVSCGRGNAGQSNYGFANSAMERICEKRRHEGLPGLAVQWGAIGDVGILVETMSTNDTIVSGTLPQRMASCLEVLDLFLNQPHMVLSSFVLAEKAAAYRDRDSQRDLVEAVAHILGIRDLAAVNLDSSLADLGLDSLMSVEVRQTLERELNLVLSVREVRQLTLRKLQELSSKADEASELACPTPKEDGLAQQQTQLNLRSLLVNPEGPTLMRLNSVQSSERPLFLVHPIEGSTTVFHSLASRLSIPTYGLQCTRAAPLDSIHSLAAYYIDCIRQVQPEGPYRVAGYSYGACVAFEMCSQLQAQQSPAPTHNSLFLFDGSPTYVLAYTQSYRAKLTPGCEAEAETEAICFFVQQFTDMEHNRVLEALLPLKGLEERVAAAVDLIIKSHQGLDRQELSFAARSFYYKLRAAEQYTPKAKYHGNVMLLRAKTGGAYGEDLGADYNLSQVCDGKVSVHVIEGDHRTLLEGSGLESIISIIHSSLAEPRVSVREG

Fatty acid synthase [9] = biological target: T5, Fatty acid synthase; assay: inhibition of human FAS-TE enzyme activity – biochemical, kinetic fluorescence intensity, dose response (AID 624326); type: functional;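 further: rate of fluorescence rise from hydrolysis of a fluorogenic O-methyl fluorescein ester substrate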
[10] = biological target: T6, Neuropeptides B/W receptor type 1 (Homo sapiens, UniProt P48145); assay: Fluorescence-based dose response cell-based high throughput screening assay to identify antagonists of the G-protein coupled receptor 7 (GPR7). [Related pubchem assays: 1952 (Screening assay (GPR7 antagonists).), 1880 (Summary AID.)]; type: functional
T6 sequence (P48145 whole entry): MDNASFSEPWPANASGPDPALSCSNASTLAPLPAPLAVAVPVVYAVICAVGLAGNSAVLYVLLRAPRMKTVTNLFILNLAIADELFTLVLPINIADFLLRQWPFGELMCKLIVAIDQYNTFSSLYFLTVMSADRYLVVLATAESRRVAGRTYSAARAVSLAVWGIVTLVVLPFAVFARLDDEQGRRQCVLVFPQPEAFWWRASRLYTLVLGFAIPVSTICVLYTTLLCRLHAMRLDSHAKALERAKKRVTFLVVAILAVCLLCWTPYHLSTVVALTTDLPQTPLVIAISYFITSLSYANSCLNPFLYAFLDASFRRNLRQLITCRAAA

[11] = biological target: Melanin-concentrating hormone receptor 1 (Homo sapiens, UniProt Q99705); assay: Fluorescence-based counterscreen for antagonists of the G-protein coupled receptor 7 (GPR7): cell-based high throughput dose response assay to identify antagonists of the melanin-concentrating hormone receptor 1 (MCHR1).; type: functional
Sequence of Melanin-concentrating hormone receptor 1 (Q99705 whole entry): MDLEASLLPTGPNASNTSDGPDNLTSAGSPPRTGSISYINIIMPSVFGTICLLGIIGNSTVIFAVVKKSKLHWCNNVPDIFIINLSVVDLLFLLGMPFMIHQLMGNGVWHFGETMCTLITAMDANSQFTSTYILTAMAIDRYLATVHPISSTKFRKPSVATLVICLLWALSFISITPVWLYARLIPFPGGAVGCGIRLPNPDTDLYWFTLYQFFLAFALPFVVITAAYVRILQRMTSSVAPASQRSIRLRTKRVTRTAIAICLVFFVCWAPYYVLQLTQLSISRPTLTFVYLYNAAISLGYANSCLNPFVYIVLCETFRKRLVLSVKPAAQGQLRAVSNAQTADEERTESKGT

[12] = biological target: Acyl-homoserine lactone acylase PvdQ (Pseudomonas aeruginosa (strain LESB58), UniProt Q9I194); assay: PvdQ acylase enzyme activity blockers – biochemical, fluorescence, plate reader and imaging, cherry-picks, dose response (AID 493231)
Sequence of Acyl-homoserine lactone acylase PvdQ (Q9I194 24-193 limits assumed): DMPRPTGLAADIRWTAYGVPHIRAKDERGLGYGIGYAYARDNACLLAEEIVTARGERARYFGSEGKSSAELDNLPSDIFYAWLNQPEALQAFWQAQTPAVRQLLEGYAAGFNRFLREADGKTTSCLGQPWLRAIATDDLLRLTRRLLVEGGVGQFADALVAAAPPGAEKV
Sequence of Acyl-homoserine lactone acylase PvdQ (Q9I194 217-762 limits assumed): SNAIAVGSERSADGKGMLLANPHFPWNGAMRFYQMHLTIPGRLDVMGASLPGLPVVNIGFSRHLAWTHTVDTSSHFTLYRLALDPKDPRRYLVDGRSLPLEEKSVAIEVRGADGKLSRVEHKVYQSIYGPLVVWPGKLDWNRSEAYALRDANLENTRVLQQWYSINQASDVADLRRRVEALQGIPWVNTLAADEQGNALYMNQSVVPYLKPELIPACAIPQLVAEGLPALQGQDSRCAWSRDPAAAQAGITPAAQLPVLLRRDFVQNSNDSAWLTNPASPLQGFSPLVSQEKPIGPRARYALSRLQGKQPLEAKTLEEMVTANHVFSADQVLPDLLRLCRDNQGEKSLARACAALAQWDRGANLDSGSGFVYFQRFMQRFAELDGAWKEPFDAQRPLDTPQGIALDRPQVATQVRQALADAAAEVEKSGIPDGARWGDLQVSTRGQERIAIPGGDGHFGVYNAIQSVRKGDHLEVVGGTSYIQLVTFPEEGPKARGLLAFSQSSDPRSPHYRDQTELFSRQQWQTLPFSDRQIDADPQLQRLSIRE

[13] = biological target: T7, Heat shock factor protein 1 (Mus musculus, UniProt P38532); assay: enhancement of HSF1-driven luciferase signal – cell-based, NIH3T3, luminescence, dose retest, confirmation (AID 435004); type: functional;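 further: stress induced by proteasome inhibitor MG132 added 30 min after compound; luciferase reporter driven by HSF1 response element in NIH3T3 cells; actives raise luminescence as potentiators of the MG132 stress response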
T7 sequence (P38532 whole entry): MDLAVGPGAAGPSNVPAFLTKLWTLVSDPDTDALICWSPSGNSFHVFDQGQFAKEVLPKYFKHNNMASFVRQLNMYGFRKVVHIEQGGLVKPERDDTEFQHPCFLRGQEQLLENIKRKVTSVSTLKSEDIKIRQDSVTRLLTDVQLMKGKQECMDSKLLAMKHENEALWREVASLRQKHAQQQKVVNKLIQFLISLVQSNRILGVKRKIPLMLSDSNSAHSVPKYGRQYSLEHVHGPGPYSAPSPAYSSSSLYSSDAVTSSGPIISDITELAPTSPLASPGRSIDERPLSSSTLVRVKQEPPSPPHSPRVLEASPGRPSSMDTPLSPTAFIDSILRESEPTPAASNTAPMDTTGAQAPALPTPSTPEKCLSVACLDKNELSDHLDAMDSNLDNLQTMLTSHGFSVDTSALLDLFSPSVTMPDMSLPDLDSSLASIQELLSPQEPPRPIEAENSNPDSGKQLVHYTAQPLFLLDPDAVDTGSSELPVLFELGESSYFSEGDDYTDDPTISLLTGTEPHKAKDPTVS

Vero = assay: host cell viability loss, Vero E6 – synthesized analogs, cytotoxicity control for West Nile virus antiviral project, SAR follow-up (AID 2244); type: functional; conditions: Chlorocebus sabaeus
Ion channel NompC = Ion channel NompC (Danio rerio, UniProt Q7T1G6); assay: Fluorescence counterscreen assay for TRPML3 agonists: dose response cell-based high-throughput screening assay to identify agonists of the transient receptor potential channel N1 (TRPN1). [Related pubchem assays: 1526, 1424, 1448 ]; type: functional
Mucolipin-3 = biological target: T8, Mucolipin-3 (Homo sapiens, UniProt Q8TDD5); assay: Dose response cell-based high-throughput screening assay for agonists of the transient receptor potential channel ML3 (TRPML3). [Related pubchem assays: 1526, 1424, 1448 ]; type: functional
T8 sequence (Q8TDD5 whole entry): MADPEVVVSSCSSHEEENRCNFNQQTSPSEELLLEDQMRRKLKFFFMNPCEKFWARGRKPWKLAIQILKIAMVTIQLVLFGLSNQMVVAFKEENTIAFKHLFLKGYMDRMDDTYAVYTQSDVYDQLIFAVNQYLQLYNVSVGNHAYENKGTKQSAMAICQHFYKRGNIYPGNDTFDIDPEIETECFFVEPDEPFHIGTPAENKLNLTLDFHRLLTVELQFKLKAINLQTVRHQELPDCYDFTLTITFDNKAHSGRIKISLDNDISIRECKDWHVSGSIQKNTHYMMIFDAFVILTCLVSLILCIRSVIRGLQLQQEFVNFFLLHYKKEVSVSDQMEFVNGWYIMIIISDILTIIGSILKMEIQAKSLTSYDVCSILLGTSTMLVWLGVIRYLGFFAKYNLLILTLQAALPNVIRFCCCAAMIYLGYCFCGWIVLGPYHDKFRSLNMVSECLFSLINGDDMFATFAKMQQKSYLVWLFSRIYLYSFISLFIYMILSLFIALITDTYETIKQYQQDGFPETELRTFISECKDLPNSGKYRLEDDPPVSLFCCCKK

O=C(CNC1CCN(Cc2ccccc2)CC1)Nc1ccc(S(=O)(=O)N2CCCCC2)cc1
EC50 [1]: > 30 µM (not active)
EC50 [2]: < 0.1 µM (active)
EC50 (cells): 0.019 µM (active)

Oc1c2c(nc3ccccc13)C(=C1CCCC1)CC2
IC50 (Estrogen receptor beta [3]): 1.69 µM (active)
IC50 (Estrogen receptor beta [4]): > 109 µM (not active)

Nc1cc2nsnc2cc1Br
IC50 [5]: > 2.48 µM (active)
IC50 (Genome polyprotein): 48.7 µM (active)
IC50 [6]: > 67 µM (not active)
IC50 [7]: 3.21 µM (active)
IC50 (Bcl-2-like protein 10): 13.3 µM (active)

CC(C)C(=O)N1CCC(CNC=C2C(=O)N(C3CCCCC3)C(=O)N(C3CCCCC3)C2=O)CC1
Absolute IC50 (XBP1) (X-box-binding protein 1): 10 µM

O=C(COc1ccc([N+](=O)[O-])cc1)NCCC1=CCCCC1
IC50 (Fatty acid synthase [8]): 8.16 µM (active)
IC50 (Fatty acid synthase [9]): 10.1 µM (active)
IC50 [10]: > 14.6 µM (not active)
IC50 [11]: 22.2 µM (not active)

CCOC(=O)c1cnn(-c2nc(SC)nc3sc4c(c23)CCC4)c1N
IC50 (Estrogen receptor beta [3]): > 50 µM (not active)
IC50 (Estrogen receptor beta [4]): 0.069 µM (not active)

Cc1ccc(SCCOCCN2CCc3ccccc3C2)cc1
EC50 [1]: > 60 µM (not active)
EC50 [2]: < 0.1 µM (active)
EC50 (cells): 0.037 µM (active)

COC(=O)c1noc(-c2ccc(OC)cc2)n1
AC50 [12]: > 100 µM (inactive)

O=C(NC1CCCCCCC1)c1cc([N+](=O)[O-])ccc1Cl
AC50 [12]: 40.8 µM (active)
IC50 (Fatty acid synthase [8]): 9.4 µM (active)
IC50 (Fatty acid synthase [9]): 7.35 µM (active)

Clc1ccc(-n2c(SC/C=C/c3ccccc3)nnc2-c2cccnc2)cc1
EC50 [13]: 46.1 µM (active)
IC50 [10]: 16.9 µM (not active)
IC50 [11]: 8.43 µM (active)

COc1ccc(-c2csc(N(CCCN(C)C)C(=O)c3ccccc3F)n2)cc1
CC50 (Vero): > 80 µM (active)

Cc1ccc(OCC(=O)N/N=C/c2c[nH]nc2-c2ccc(Cl)c(Cl)c2)cc1
Absolute IC50 (XBP1) (X-box-binding protein 1): 10 µM

O=C1CCCN1CC#CCN1CCCC1 [OXOTREMORINE]
EC50 (Ion channel NompC): > 29.9 µM (not active)
EC50 (Mucolipin-3): > 29.9 µM (not active)

From ChEMBL document CHEMBL1201862, “PubChem BioAssay data set” (2004)
